Experimental data reported in patent publication US8815919B2, “Oxadiazole derivatives” (Merck Serono SA, priority 2009, dated 2014).
Structures can show the parent of a compound that is named as a salt. Where two headings read alike, the source gives them in different places.

How the values were obtained:
S1P1 [1] = molecular target: T1, S1P1 (Homo sapiens, UniProt P21453); assay: Receptor binding assay, [33P]sphingosine 1-phosphate competition, S1P1 membranes, WGA SPA beads
In short: (§1)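 Competition of [33P]S1P ([…]) on CHO cell membranes with WGA SPA beads in 50 mM HEPES pH 7.5, 5 mM MgCl2, 100 mM NaCl, 0.4% fatty acid-free BSA; 60 min at RT. Triplicates normalised to total binding and nonspecific binding (1000-fold excess unlabeled S1P).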
Target sequence in this assay (P21453 whole entry, species assumed): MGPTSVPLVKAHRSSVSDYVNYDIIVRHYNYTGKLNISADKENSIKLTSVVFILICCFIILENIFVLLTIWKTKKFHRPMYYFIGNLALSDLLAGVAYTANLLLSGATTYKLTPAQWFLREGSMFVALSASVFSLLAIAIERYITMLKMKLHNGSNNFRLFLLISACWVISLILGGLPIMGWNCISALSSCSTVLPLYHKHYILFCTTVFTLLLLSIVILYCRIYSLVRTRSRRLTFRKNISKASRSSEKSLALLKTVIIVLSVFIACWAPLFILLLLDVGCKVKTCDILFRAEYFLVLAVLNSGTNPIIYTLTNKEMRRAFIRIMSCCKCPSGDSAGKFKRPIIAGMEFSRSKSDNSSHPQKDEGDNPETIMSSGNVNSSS

S1P3 = S1P3 (Homo sapiens, UniProt Q99500); assay: Receptor binding assay, [33P]sphingosine 1-phosphate competition, S1P3 membranes, WGA SPA beads
In short: as §1

S1P1 [2] = molecular target: T1, S1P1; assay: S1P1 internalization assay in S1P1-U2OS cells (S1P1-EGFP), cell imaging; assay type: cell-based; design: host or cells: U2OS (human bone osteosarcoma epithelial cells), CMV promoter, geneticin selection; conditions: 1 hour incubation
In short: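 U2OS cells stably expressing human S1P1-EGFP, plated overnight in 1% FCS medium, then serum-starved 2 h in 0.1% fatty-acid-free BSA before 1 h compound exposure at 37 °C. After PFA fixation and Hoechst staining, internalization imaged as EGFP spot count per nucleus.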
Target sequence in this assay (P21453 whole entry): as the sequence (P21453 whole entry, species assumed) above

[3] = 384 well-plate, read-out: S1P1 binding Ki (M) (384 well-plate)
[4] = 384 well-plate, read-out: S1P3 binding Ki (M) (384 well-plate)
[5] = 96 well-plate, read-out: S1P1 binding Ki (M) (96 well-plate)

Sequence of S1P3 (Q99500 whole entry, species assumed): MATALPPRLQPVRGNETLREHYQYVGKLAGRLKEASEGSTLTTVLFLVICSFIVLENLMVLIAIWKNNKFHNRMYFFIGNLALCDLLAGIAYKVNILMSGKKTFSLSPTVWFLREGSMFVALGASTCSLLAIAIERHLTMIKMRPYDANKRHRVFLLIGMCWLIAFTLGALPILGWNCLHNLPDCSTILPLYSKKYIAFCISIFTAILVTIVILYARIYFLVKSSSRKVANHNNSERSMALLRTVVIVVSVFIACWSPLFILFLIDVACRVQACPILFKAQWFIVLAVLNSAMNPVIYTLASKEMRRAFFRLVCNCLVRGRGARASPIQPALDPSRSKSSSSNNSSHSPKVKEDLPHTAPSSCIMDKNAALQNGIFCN

Row | SMILES | Ki (S1P1 [1]; [3]) [M] | Ki (S1P3; [4]) [M] | EC50 (S1P1 [2]) [nM] | Ki (S1P1 [1]; [5]) [M] | Ki (S1P3; 96 well-plate, read-out: S1P3 binding Ki (M) (96 well-plate))
1 | COCc1cc(-c2nc(-c3cccc(CN(CCC(=O)O)C(C)C)c3)no2)ccc1-c1ccccc1C [Example 108, N-isopropyl-N-(3-{5-[2-(methoxymethyl)-2′-methylbiphenyl-4-yl]-1,2,4-oxadiazol-3-yl}benzyl)-beta-alanine, hydrochloride salt] | 5.06e-10 | 1.1e-06 | 14 |  | 
2 | COCc1cc(-c2nc(-c3ccc(CN(C)CC(=O)O)cc3)no2)ccc1-c1ccccc1Cl [Example 118, N-(4-{5-[2′-chloro-2-(methoxymethyl)biphenyl-4-yl]-1,2,4-oxadiazol-3-yl}benzyl)-N-methylglycine, hydrochloride salt] | 1.1e-09 | 5.67e-07 | 9.94 |  | 
3 | COCc1cc(-c2nc(-c3ccc(CN(C)CC(=O)O)c(F)c3)no2)ccc1-c1ccccc1Cl [Example 119, N-(4-{5-[2′-chloro-2-(methoxymethyl)biphenyl-4-yl]-1,2,4-oxadiazol-3-yl}-2-fluorobenzyl)-N-methylglycine, hydrochloride salt] | 9.55e-10 | 3.83e-07 | 11.5 |  | 
4 | COCc1cc(-c2nc(-c3ccc(CN(C)CC(=O)O)c(F)c3)no2)ccc1-c1cccc(F)c1Cl [Example 121, N-(4-{5-[2′-chloro-3′-fluoro-2-(methoxymethyl)biphenyl-4-yl]-1,2,4-oxadiazol-3-yl}-2-fluorobenzyl)-N-methylglycine, hydrochloride salt] | 1.54e-09 | 5.26e-07 | 6.56 |  | 
5 | COCc1cc(-c2nc(-c3ccc(CN(C)CC(=O)O)cc3)no2)ccc1-c1cccc(F)c1Cl [Example 122, N-(4-{5-[2′-chloro-3′-fluoro-2-(methoxymethyl)biphenyl-4-yl]-1,2,4-oxadiazol-3-yl}benzyl)-N-methylglycine, hydrochloride salt] | 1.31e-09 | 2.5e-06 | 5.1 |  | 
6 | CCc1cc(-c2noc(-c3ccc(-c4ccccc4C)c(COC)c3)n2)ccc1CN(C)CC(=O)O [Example 124, 2-((2-ethyl-4-(5-(2-(methoxymethyl)-2′-methylbiphenyl-4-yl)-1,2,4-oxadiazol-3-yl)benzyl)(methyl)amino)acetic acid] | 1.98e-09 | 4.1e-06 | 23.2 |  | 
7 | COCc1cc(-c2nc(-c3ccc(CN(C)CC(=O)O)c(C)c3)no2)ccc1-c1ccccc1C [Example 125, 2-((4-(5-(2-(methoxymethyl)-2′-methylbiphenyl-4-yl)-1,2,4-oxadiazol-3-yl)-2-methylbenzyl)(methyl)amino)acetic acid] | 2.31e-09 | 1.92e-06 | 7.65 |  | 
8 | COCc1cc(-c2nc(-c3cc(CN(C)CC(=O)O)cc(F)c3F)no2)ccc1-c1ccccc1C [Example 126, N-(3,4-difluoro-5-{5-[2-(methoxymethyl)-2′-methylbiphenyl-4-yl]-1,2,4-oxadiazol-3-yl}benzyl)-N-methylglycine, hydrochloride salt] | 2.88e-09 | 6.55e-07 | 47 |  | 
9 | COCc1cc(-c2nc(-c3ccc(CN(C)CC(=O)O)cc3)no2)ccc1-c1cc(F)ccc1C [Example 127, N-(4-{5-[5′-fluoro-2-(methoxymethyl)-2′-methylbiphenyl-4-yl]-1,2,4-oxadiazol-3-yl}benzyl)-N-methylglycine, hydrochloride salt] | 1.12e-09 | 7.6e-07 | 8.68 |  | 
10 | COCc1cc(-c2nc(-c3ccc(CN(C)CC(=O)O)c(Cl)c3)no2)ccc1-c1ccccc1C [Example 128, 2-((4-(5-(2-(methoxymethyl)-2′-methylbiphenyl-4-yl)-1,2,4-oxadiazol-3-yl)-2-chlorobenzyl)(methyl)amino)acetic acid] | 1.45e-09 | 5.66e-07 | 13.3 |  | 
11 | Cc1ccccc1-c1ccc(-c2nc(-c3ccc(CN(C)CC(=O)O)cc3)no2)cc1C [Example 130, N-{4-[5-(2,2′-dimethylbiphenyl-4-yl)-1,2,4-oxadiazol-3-yl]benzyl}-N-methylglycine, hydrochloride salt] | 2.53e-09 | 5.38e-06 | 23.3 | 8.34e-10 | 
12 | Cc1ccccc1-c1ccc(-c2nc(-c3ccc(CN(C)CC(=O)O)c(F)c3)no2)cc1C [Example 131, N-{4-[5-(2,2′-dimethylbiphenyl-4-yl)-1,2,4-oxadiazol-3-yl]-2-fluorobenzyl}-N-methylglycine, hydrochloride salt] | 1.68e-09 | 1.98e-06 | 16.2 |  | 
13 | Cc1ccccc1-c1ccc(-c2nc(-c3cccc(CN(C)CC(=O)O)c3)no2)cc1C [Example 132, N-{3-[5-(2,2′-dimethylbiphenyl-4-yl)-1,2,4-oxadiazol-3-yl]benzyl}-N-methylglycine, hydrochloride salt] | 3.65e-09 | 1.64e-06 | 235 |  | 
14 | Cc1ccccc1-c1ccc(-c2nc(-c3cc(F)cc(CN(C)CC(=O)O)c3)no2)cc1C [Example 133, N-{3-[5-(2,2′-dimethylbiphenyl-4-yl)-1,2,4-oxadiazol-3-yl]-5-fluorobenzyl}-N-methylglycine, hydrochloride salt] | 2.81e-09 | 4.72e-07 | 42.2 |  | 
15 | COC(C)c1cc(-c2nc(-c3ccc(CN(C)CC(=O)O)cc3)no2)ccc1-c1ccccc1C (stereo not drawn) [Example 140, N-(4-{5-[2-(1-methoxyethyl)-2′-methylbiphenyl-4-yl]-1,2,4-oxadiazol-3-yl}benzyl)-N-methylglycine, hydrochloride salt] | 9.81e-10 | 3.89e-07 | 3.75 | 1.89e-10 | 1.64e-07
16 | Cc1ccccc1-c1ccc(-c2nc(-c3ccc(CNCCCC(=O)O)cc3)no2)cc1C(F)(F)F [Example 142, 4-[(4-{5-[2′-methyl-2-(trifluoromethyl)biphenyl-4-yl]-1,2,4-oxadiazol-3-yl}benzyl)amino]butanoic acid] | 5.49e-10 | 3.73e-07 | 0.802 |  | 
17 | COCc1cc(-c2nc(-c3ccc(CN(C)CC(=O)O)cc3C(F)(F)F)no2)ccc1-c1ccccc1C [Example 143, 2-((4-(5-(2-(methoxymethyl)-2′-methylbiphenyl-4-yl)-1,2,4-oxadiazol-3-yl)-3-(trifluoromethyl)benzyl)(methyl)amino)acetic acid] | 2.32e-09 | 1.83e-06 | 85.5 |  | 
18 | COCc1cc(-c2nc(-c3ccc(CN(C)CC(=O)O)cc3Cl)no2)ccc1-c1ccccc1C [Example 144, 2-((4-(5-(2-(methoxymethyl)-2′-methylbiphenyl-4-yl)-1,2,4-oxadiazol-3-yl)-3-chlorobenzyl)(methyl)amino)acetic acid] | 1.73e-09 | 3.55e-07 | 25.7 |  | 
19 | COCc1cc(-c2nc(-c3ccc(CN(C)CC(=O)O)cc3F)no2)ccc1-c1ccccc1C [Example 146, 2-((3-fluoro-4-(5-(2-(methoxymethyl)-2′-methylbiphenyl-4-yl)-1,2,4-oxadiazol-3-yl)benzyl)(methyl)amino)acetic acid, hydrochloride salt] | 9.36e-10 | 3.68e-07 | 33.6 |  | 
20 | COCc1cc(-c2nc(-c3cc(F)c(CNCC(=O)O)c(F)c3)no2)ccc1-c1ccccc1C [Example 147, 2-(2,6-difluoro-4-(5-(2-(methoxymethyl)-2′-methylbiphenyl-4-yl)-1,2,4-oxadiazol-3-yl)benzylamino)acetic acid, hydrochloride salt] | 6.95e-10 | 1.35e-07 | 1.54 |  | 
21 | COCc1cc(-c2nc(-c3ccc(CN(C)CC(=O)O)c(F)c3F)no2)ccc1-c1ccccc1C [Example 149, 2-((2,3-difluoro-4-(5-(2-(methoxymethyl)-2′-methylbiphenyl-4-yl)-1,2,4-oxadiazol-3-yl)benzyl)(methyl)amino)acetic acid, hydrochloride salt] | 1.26e-09 | 1.48e-07 | 9.54 |  | 
22 | COCc1cc(-c2nc(-c3cc(F)c(CN(C)CC(=O)O)c(F)c3)no2)ccc1-c1ccccc1C [Example 151, 2-((2,6-difluoro-4-(5-(2-(methoxymethyl)-2′-methylbiphenyl-4-yl)-1,2,4-oxadiazol-3-yl)benzyl)(methyl)amino)acetic acid, hydrochloride salt] | 3.53e-09 | 3.9e-07 | 21.6 |  | 
